# Marks after values point to notes of the source that are not given here.
# Key:
# [1] = system: Male salt-sensitive Dahl rats; assay: Fasting free fatty acids (FFA) and adiponectin in treated Dahl rats; assay type: in vivo, rat; conditions: 3 weeks treatment; 40 mg/kg compound 1, 20 mg/kg rosiglitazone
# Method: Doses of these compounds were chosen to produce the same metabolic effects in terms of reduction of triglycerides and elevation of adiponectin (Table E). Direct blood pressure (systolic and diastolic) and heart rate was also measured by telemetry (Tables F—H and FIG. 4).
# [2] = system: Male salt-sensitive Dahl rats; assay: Blood pressure (systolic and diastolic) and heart rate by telemetry in hypertensive Dahl rats; assay type: in vivo, rat; conditions: 24 hour average
# Method: Direct blood pressure (systolic and diastolic) and heart rate was also measured by telemetry (Tables F—H and FIG. 4). Data in Tables F—H and depicted in FIGS. 4A-4C are 24 hour averages for the last 4 days before the start of the daily oral gavage of treatments (−4, −3, −2, −1) and for the days 1-17 during the treatments shown.
# [3] = day 1 of treatment, rosiglitazone 20 mg/kg, compound 1 40 mg/kg
# [4] = day 2 of treatment, rosiglitazone 20 mg/kg, compound 1 40 mg/kg
# [5] = day 3 of treatment, rosiglitazone 20 mg/kg, compound 1 40 mg/kg
# [6] = day 4 of treatment, rosiglitazone 20 mg/kg, compound 1 40 mg/kg
# [7] = day 5 of treatment, rosiglitazone 20 mg/kg, compound 1 40 mg/kg
# [8] = day 6 of treatment, rosiglitazone 20 mg/kg, compound 1 40 mg/kg
# [9] = day 7 of treatment, rosiglitazone 20 mg/kg, compound 1 40 mg/kg
# [10] = day 8 of treatment, rosiglitazone 20 mg/kg, compound 1 40 mg/kg
# [11] = day 9 of treatment, rosiglitazone 20 mg/kg, compound 1 40 mg/kg
# [12] = day 10 of treatment, rosiglitazone 20 mg/kg, compound 1 40 mg/kg
# [13] = day 11 of treatment, rosiglitazone 20 mg/kg, compound 1 40 mg/kg
# [14] = day 12 of treatment, rosiglitazone 20 mg/kg, compound 1 40 mg/kg
# [15] = day 13 of treatment, rosiglitazone 20 mg/kg, compound 1 40 mg/kg
# [16] = day 14 of treatment, rosiglitazone 20 mg/kg, compound 1 40 mg/kg
# [17] = day 15 of treatment, rosiglitazone 20 mg/kg, compound 1 40 mg/kg
# [18] = day 16 of treatment, rosiglitazone 20 mg/kg, compound 1 40 mg/kg
# [19] = day 17 of treatment, rosiglitazone 20 mg/kg, compound 1 40 mg/kg
# [20] = day −1, before start of treatment
# [21] = day −2, before start of treatment
# [22] = day −3, before start of treatment
# [23] = day −4, before start of treatment
smiles,measurement,setting,value
"CN(CCOc1ccc(CC2SC(=O)NC2=O)cc1)c1ccccn1 (centres unmarked) [Rosiglitazone, reference compound]",Adiponectin,[1],36*
same,FFA,[1],0.77*
same,"Diastolic blood pressure measured by telemetry, Mean",[2]; [3],119
same,"Heart rate measured by telemetry, Mean",[2]; [3],407 bpm
same,"Diastolic blood pressure measured by telemetry, Mean",[2]; [4],121
same,"Heart rate measured by telemetry, Mean",[2]; [4],402 bpm
same,"Systolic blood pressure measured by telemetry, Mean",[2]; [4],172
same,"Diastolic blood pressure measured by telemetry, Mean",[2]; [5],123
same,"Heart rate measured by telemetry, Mean",[2]; [5],405 bpm
same,"Systolic blood pressure measured by telemetry, Mean",[2]; [5],175
same,"Diastolic blood pressure measured by telemetry, Mean",[2]; [6],124
same,"Heart rate measured by telemetry, Mean",[2]; [6],399 bpm
same,"Systolic blood pressure measured by telemetry, Mean",[2]; [6],177
same,"Diastolic blood pressure measured by telemetry, Mean",[2]; [7],126
same,"Heart rate measured by telemetry, Mean",[2]; [7],398 bpm
same,"Systolic blood pressure measured by telemetry, Mean",[2]; [7],179
same,"Diastolic blood pressure measured by telemetry, Mean",[2]; [8],126
same,"Heart rate measured by telemetry, Mean",[2]; [8],398 bpm
same,"Systolic blood pressure measured by telemetry, Mean",[2]; [8],179
same,"Diastolic blood pressure measured by telemetry, Mean",[2]; [9],131
same,"Heart rate measured by telemetry, Mean",[2]; [9],393 bpm
same,"Systolic blood pressure measured by telemetry, Mean",[2]; [9],184
same,"Diastolic blood pressure measured by telemetry, Mean",[2]; [10],135
same,"Heart rate measured by telemetry, Mean",[2]; [10],401 bpm
same,"Systolic blood pressure measured by telemetry, Mean",[2]; [10],188
same,"Diastolic blood pressure measured by telemetry, Mean",[2]; [11],136
same,"Heart rate measured by telemetry, Mean",[2]; [11],398 bpm
same,"Systolic blood pressure measured by telemetry, Mean",[2]; [11],190
same,"Heart rate measured by telemetry, Mean",[2]; [12],398 bpm
same,"Systolic blood pressure measured by telemetry, Mean",[2]; [12],192
same,"Heart rate measured by telemetry, Mean",[2]; [13],399 bpm
same,"Systolic blood pressure measured by telemetry, Mean",[2]; [13],194
same,"Heart rate measured by telemetry, Mean",[2]; [14],399 bpm
same,"Systolic blood pressure measured by telemetry, Mean",[2]; [14],196
same,"Heart rate measured by telemetry, Mean",[2]; [15],395 bpm
same,"Systolic blood pressure measured by telemetry, Mean",[2]; [15],196
same,"Heart rate measured by telemetry, Mean",[2]; [16],393 bpm
same,"Systolic blood pressure measured by telemetry, Mean",[2]; [16],198
same,"Heart rate measured by telemetry, Mean",[2]; [17],398 bpm
same,"Systolic blood pressure measured by telemetry, Mean",[2]; [17],202
same,"Heart rate measured by telemetry, Mean",[2]; [18],401 bpm
same,"Systolic blood pressure measured by telemetry, Mean",[2]; [18],204
same,"Heart rate measured by telemetry, Mean",[2]; [19],402 bpm
same,"Systolic blood pressure measured by telemetry, Mean",[2]; [19],204
same,"Diastolic blood pressure measured by telemetry, Mean",[2]; [20],124
same,"Heart rate measured by telemetry, Mean",[2]; [20],395 bpm
same,"Systolic blood pressure measured by telemetry, Mean",[2]; [20],173
same,"Diastolic blood pressure measured by telemetry, Mean",[2]; [21],127
same,"Heart rate measured by telemetry, Mean",[2]; [21],394 bpm
same,"Systolic blood pressure measured by telemetry, Mean",[2]; [21],176
same,"Diastolic blood pressure measured by telemetry, Mean",[2]; [22],124
same,"Heart rate measured by telemetry, Mean",[2]; [22],400 bpm
same,"Systolic blood pressure measured by telemetry, Mean",[2]; [22],171
same,"Diastolic blood pressure measured by telemetry, Mean",[2]; [23],124
same,"Heart rate measured by telemetry, Mean",[2]; [23],403 bpm
same,"Systolic blood pressure measured by telemetry, Mean",[2]; [23],174

# Reference: patent US8629159B2, “Thiazolidinedione analogues” (Metabolic Solutions Development Company, LLC, priority 2006, dated 2014)
